Reference: patent US8637013B2, “Treatment of drug-related side effect and tissue damage by targeting the CD24-HMGB1-Siglec10 axis” (The Regents of The University of Michigan, priority 2009, dated 2014)
No end group written: not given here.

Columns and labels:
[1] = tested on: sialidase activity in the sera of sepsis mice; assay: Serum sialidase activity of CLP mice (Amplex Red Neuraminidase assay kit); format: biochemical, mouse; details: sera from CLP mice mixed with inhibitors prior to the assay
[2] = biological target: T1, CD24-Siglec 10 interaction (Homo sapiens, UniProt Q96LC7); assay: Inhibition of CD24-Siglec 10 interaction by sialosides (microplate binding assay); details: for Inhibition of CD24-Siglec 10 interaction: Siglec 10Fc preincubated with sialoside, then added to plate-bound CD24Fc
T1 construct: Recombinant protein consisting of human IgG Fc and extracellular domains of Siglec 10; purchased R&D Systems
T1 sequence (Q96LC7 17-550 limits assumed): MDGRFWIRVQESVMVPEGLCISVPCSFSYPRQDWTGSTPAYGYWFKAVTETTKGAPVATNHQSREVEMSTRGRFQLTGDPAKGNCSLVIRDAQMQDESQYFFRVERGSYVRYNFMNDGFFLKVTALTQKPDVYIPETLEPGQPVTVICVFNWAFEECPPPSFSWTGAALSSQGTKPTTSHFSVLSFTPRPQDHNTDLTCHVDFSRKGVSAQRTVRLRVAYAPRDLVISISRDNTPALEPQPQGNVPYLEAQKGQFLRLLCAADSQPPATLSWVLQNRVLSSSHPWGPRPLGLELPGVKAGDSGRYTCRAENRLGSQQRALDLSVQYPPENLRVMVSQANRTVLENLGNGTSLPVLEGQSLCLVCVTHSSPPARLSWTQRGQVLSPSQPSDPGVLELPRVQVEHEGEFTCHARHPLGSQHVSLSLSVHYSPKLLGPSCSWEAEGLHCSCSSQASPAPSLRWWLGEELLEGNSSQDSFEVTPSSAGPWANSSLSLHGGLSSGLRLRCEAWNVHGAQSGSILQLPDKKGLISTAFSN

[3] = tested on: AAP-induced liver damage in WT B6 mice; assay: AAP-induced liver damage in WT mice treated with CD24Fc; format: in vivo; details: AAP 16 mg/mouse, 5 hours after AAP, vs control IgG Fc
HMGB1 [4] = assay: Co-immunoprecipitation of HMGB1 with CD24-Fc; format: binding, human; details: FLAG-tagged constructs in COS7 cell lysates
HMGB1 [5] = biological target: T2, HMGB1 (Homo sapiens, UniProt P09429); assay: Co-immunoprecipitation of HMGB1 with CD24-Fc; format: binding; details: vs control IgG-Fc; cation-dependent
T2 construct: the full-length HMGB-1 expression vector was transfected into TSA cells; FLAG; made in house; host or cells: TSA cells (purified protein)
T2 sequence (P09429 1-215): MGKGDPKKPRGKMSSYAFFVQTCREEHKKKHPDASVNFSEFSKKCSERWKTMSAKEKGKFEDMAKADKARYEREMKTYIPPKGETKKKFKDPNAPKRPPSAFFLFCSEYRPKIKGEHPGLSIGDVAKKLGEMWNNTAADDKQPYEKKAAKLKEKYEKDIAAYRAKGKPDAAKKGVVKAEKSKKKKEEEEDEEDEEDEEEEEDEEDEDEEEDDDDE

`CC(=O)N[C@@H]1C(O)C=C(C(=O)O)OC1[C@H](O)[C@H](O)CO` (stereo partly drawn) [Compound 1, 2,3-dehydro-2-deoxy-N-acetylneuraminic acid] was tested, and the “Inhibition of sialidase activity in the serum of sepsis mice” value [1] was “minimal effect”.
`CC(=O)N[C@H]1[C@H]([C@H](O)[C@H](O)CO)O[C@@](O[C@H]2[C@@H](O)[C@@H](CO)O[C@@H](O[C@H]3[C@H](O)[C@@H](O)C(O)O[C@@H]3CO)[C@@H]2O)(C(=O)O)C[C@@H]1O` (stereo partly drawn) [Neu5Acα2-3Lac] was tested, and the “Inhibition of CD24-Siglec 10 interaction” value [2] was “efficient inhibition”.
With `CC(=O)N[C@H]1[C@H]([C@H](O)[C@H](O)CO)O[C@@](OC[C@H]2O[C@@H](O[C@H]3[C@H](O)[C@@H](O)C(O)O[C@@H]3CO)[C@H](O)[C@@H](O)[C@H]2O)(C(=O)O)C[C@@H]1O` (stereo partly drawn) [Neu5Acα2-6Lac] the “Relative potency in inhibiting CD24-Siglec 10 interaction” value ([2]; 2-6 versus 2-3 linked sialoside) was “more potent” and the “Inhibition of CD24-Siglec 10 interaction” value [2] was “efficient inhibition”.
For `O=C(CO)N[C@H]1[C@H]([C@H](O)[C@H](O)CO)OC(C(=O)O)=C[C@@H]1O` [Neu5Gc2en, 2,3-dehydro-2-deoxy-N-glycolylneuraminic acid], the “Inhibition of sialidase activity in the serum of sepsis mice” value [1] was “partial inhibition”.
With “CD24Fc: fusion protein that binds to HMGB1 and Siglec 10 (SETTTGTSSNSSQSTSNSGLAPNPTNATTK; not fully specified (C-terminus); also: fused to dimerising Fc (not given here))” the “Inflammatory cytokines in serum (IL-6, IL-10, MCP-1, IFN-γ, TNF-α)” value [3] was “massive reduction”, the “Immunoprecipitation of box A-containing HMGB1 mutant” value (HMGB1 [4]) was “not the box A-containing mutant” and the “Immunoprecipitation of full length HMGB1 and box B-containing mutant” value (HMGB1 [4]) was “immunoprecipitated”. The “Coimmunoprecipitation of recombinant HMGB-1” value (HMGB1 [5]) was “specifically coimmunoprecipitated”.
